The supplement of paper PMC10307832

Assays:
Assay in all cases: relative viability (nuclei count vs DMSO), 5 days (fraction); higher = more cells survive
[1] = compound: C[As](C)SC[C@H](NC(=O)CC[C@H](N)C(=O)O)C(=O)NCC(=O)O [Darinaparsin] + C[C@]1(O)C[C@@H](c2nc(-c3ccc4ccc(-c5ccccc5)nc4c3)c3c(N)nccn32)C1 [Linsitinib] (partner 1 µM)
How it was run: (§1)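 Lung cancer cell lines were pin-tool dosed in 1536-well plates on the day after seeding, with either a lone drug or a fixed anchor-drug dose plus five library-drug doses (not always all listed) in √10 steps. Nuclei were counted on 4× images after 5 days. Relative viability is the ratio of treated-well to vehicle-well nuclei counts, with each value a median of duplicate plates.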

AZ628 + Olaparib = compound: CC1=C(C=C(C=C1)NC(=O)C2=CC(=CC=C2)C(C)(C)C#N)NC3=CC4=C(C=C3)N=CN(C4=O)C [AZ628] + O=C(c1cc(Cc2n[nH]c(=O)c3ccccc23)ccc1F)N1CCN(C(=O)C2CC2)CC1 [Olaparib] (partner 8 µM)
How it was run: as §1

[2] = compound: C[As](C)SC[C@H](NC(=O)CC[C@H](N)C(=O)O)C(=O)NCC(=O)O [Darinaparsin] + C[C@@H](Oc1cc(-c2cnn(C3CCNCC3)c2)cnc1N)c1c(Cl)ccc(F)c1Cl [Crizotinib] (partner 1 µM)
How it was run: as §1

QS11 + Decitabine = compound: C1CC2=C(C1)C=C(C=C2)OC3=NC(=C4C(=N3)N(C=N4)CC5=CC=C(C=C5)C6=CC=CC=C6)N[C@@H](CC7=CC=CC=C7)CO [QS11] + Nc1ncn([C@H]2C[C@H](O)[C@@H](CO)O2)c(=O)n1 [Decitabine] (partner 2 µM)
How it was run: as §1

With LOU-NH91 the relative viability ([1]; first compound 0.08 µM) was 0.962, the relative viability ([1]; first compound 0.8 µM) was 0.92 and the relative viability ([1]; first compound 2.53 µM) was 0.952. For the same cell line, the relative viability ([1]; first compound 8 µM) was 0.946, the relative viability (AZ628 + Olaparib; first compound 0.08 µM) was 0.935 and the relative viability (AZ628 + Olaparib; first compound 0.253 µM) was 0.94. It also gave a relative viability (AZ628 + Olaparib; first compound 0.8 µM) of 0.965, a relative viability (AZ628 + Olaparib; first compound 2.53 µM) of 0.936 and a relative viability (AZ628 + Olaparib; first compound 8 µM) of 0.764. It also gave a relative viability ([2]; first compound 0.08 µM) of 0.779, a relative viability ([2]; first compound 0.8 µM) of 0.759 and a relative viability ([2]; first compound 2.53 µM) of 0.75. The relative viability ([2]; first compound 8 µM) was 0.737, the relative viability (QS11 + Decitabine; first compound 0.08 µM) was 0.807 and the relative viability (QS11 + Decitabine; first compound 0.253 µM) was 0.8. The relative viability (QS11 + Decitabine; first compound 0.8 µM) was 0.776, the relative viability (QS11 + Decitabine; first compound 2.53 µM) was 0.852 and the relative viability (QS11 + Decitabine; first compound 8 µM) was 0.821.
For IA-LM, the relative viability ([1]; first compound 0.08 µM) was 0.949, the relative viability ([1]; first compound 0.8 µM) was 0.8 and the relative viability ([1]; first compound 2.53 µM) was 0.533. It also gave a relative viability ([1]; first compound 8 µM) of 0.681, a relative viability (AZ628 + Olaparib; first compound 0.08 µM) of 1.03 and a relative viability (AZ628 + Olaparib; first compound 0.253 µM) of 0.815. It also gave a relative viability (AZ628 + Olaparib; first compound 0.8 µM) of 0.846, a relative viability (AZ628 + Olaparib; first compound 2.53 µM) of 0.875 and a relative viability (AZ628 + Olaparib; first compound 8 µM) of 0.363. It also gave a relative viability ([2]; first compound 0.08 µM) of 1.06, a relative viability ([2]; first compound 0.8 µM) of 0.645 and a relative viability ([2]; first compound 2.53 µM) of 0.788. For the same cell line, the relative viability ([2]; first compound 8 µM) was 0.923.
Work on SW 900 yielded a relative viability (AZ628 + Olaparib; first compound 0.08 µM) of 1.04, a relative viability (AZ628 + Olaparib; first compound 0.253 µM) of 0.878 and a relative viability (AZ628 + Olaparib; first compound 0.8 µM) of 1.02. For the same cell line, the relative viability (AZ628 + Olaparib; first compound 2.53 µM) was 0.951, the relative viability (AZ628 + Olaparib; first compound 8 µM) was 0.683 and the relative viability (QS11 + Decitabine; first compound 0.08 µM) was 0.37. It also gave a relative viability (QS11 + Decitabine; first compound 0.253 µM) of 0.475, a relative viability (QS11 + Decitabine; first compound 0.8 µM) of 0.413 and a relative viability (QS11 + Decitabine; first compound 2.53 µM) of 0.491. For the same cell line, the relative viability (QS11 + Decitabine; first compound 8 µM) was 0.412.
Cell Line LU99A has a relative viability ([1]; first compound 0.08 µM) of 0.618, a relative viability ([1]; first compound 0.8 µM) of 0.633 and a relative viability ([1]; first compound 2.53 µM) of 0.475. For the same cell line, the relative viability ([1]; first compound 8 µM) was 0.581, the relative viability (AZ628 + Olaparib; first compound 0.08 µM) was 0.269 and the relative viability (AZ628 + Olaparib; first compound 0.253 µM) was 0.255. It also gave a relative viability (AZ628 + Olaparib; first compound 0.8 µM) of 0.272, a relative viability (AZ628 + Olaparib; first compound 2.53 µM) of 0.296 and a relative viability (AZ628 + Olaparib; first compound 8 µM) of 0.214. The relative viability ([2]; first compound 0.08 µM) was 0.626, the relative viability ([2]; first compound 0.8 µM) was 0.574 and the relative viability ([2]; first compound 2.53 µM) was 0.461. The relative viability ([2]; first compound 8 µM) was 0.593, the relative viability (QS11 + Decitabine; first compound 0.08 µM) was 0.873 and the relative viability (QS11 + Decitabine; first compound 0.253 µM) was 0.967. For the same cell line, the relative viability (QS11 + Decitabine; first compound 0.8 µM) was 0.963, the relative viability (QS11 + Decitabine; first compound 2.53 µM) was 0.922 and the relative viability (QS11 + Decitabine; first compound 8 µM) was 0.931.
For NCI-H661, the relative viability ([1]; first compound 0.08 µM) was 0.558, the relative viability ([1]; first compound 0.8 µM) was 0.569 and the relative viability ([1]; first compound 2.53 µM) was 0.526. It also gave a relative viability ([1]; first compound 8 µM) of 0.593, a relative viability (AZ628 + Olaparib; first compound 0.08 µM) of 0.748 and a relative viability (AZ628 + Olaparib; first compound 0.253 µM) of 0.702. For the same cell line, the relative viability (AZ628 + Olaparib; first compound 0.8 µM) was 0.699, the relative viability (AZ628 + Olaparib; first compound 2.53 µM) was 0.727 and the relative viability (AZ628 + Olaparib; first compound 8 µM) was 0.644. For the same cell line, the relative viability ([2]; first compound 0.08 µM) was 1.08, the relative viability ([2]; first compound 0.8 µM) was 1.11 and the relative viability ([2]; first compound 2.53 µM) was 0.929. It also gave a relative viability ([2]; first compound 8 µM) of 1.1, a relative viability (QS11 + Decitabine; first compound 0.08 µM) of 0.511 and a relative viability (QS11 + Decitabine; first compound 0.253 µM) of 0.585. It also gave a relative viability (QS11 + Decitabine; first compound 0.8 µM) of 0.474, a relative viability (QS11 + Decitabine; first compound 2.53 µM) of 0.554 and a relative viability (QS11 + Decitabine; first compound 8 µM) of 0.46.
EBC-1 showed a relative viability ([1]; first compound 0.08 µM) of 1.12, a relative viability ([1]; first compound 0.8 µM) of 0.942 and a relative viability ([1]; first compound 2.53 µM) of 0.864. It also gave a relative viability ([1]; first compound 8 µM) of 1.15, a relative viability (AZ628 + Olaparib; first compound 0.08 µM) of 0.609 and a relative viability (AZ628 + Olaparib; first compound 0.253 µM) of 0.615. It also gave a relative viability (AZ628 + Olaparib; first compound 0.8 µM) of 0.737, a relative viability (AZ628 + Olaparib; first compound 2.53 µM) of 0.684 and a relative viability (AZ628 + Olaparib; first compound 8 µM) of 0.314. The relative viability ([2]; first compound 0.08 µM) was 0.196, the relative viability ([2]; first compound 0.8 µM) was 0.19 and the relative viability ([2]; first compound 2.53 µM) was 0.181. For the same cell line, the relative viability ([2]; first compound 8 µM) was 0.166.
Cell Line NCI-H3122 has a relative viability ([1]; first compound 0.08 µM) of 1.1, a relative viability ([1]; first compound 0.8 µM) of 1.08 and a relative viability ([1]; first compound 2.53 µM) of 1.08. It also gave a relative viability ([1]; first compound 8 µM) of 1.03, a relative viability (AZ628 + Olaparib; first compound 0.08 µM) of 0.652 and a relative viability (AZ628 + Olaparib; first compound 0.253 µM) of 0.634. It also gave a relative viability (AZ628 + Olaparib; first compound 0.8 µM) of 0.561, a relative viability (AZ628 + Olaparib; first compound 2.53 µM) of 0.565 and a relative viability (AZ628 + Olaparib; first compound 8 µM) of 0.379. For the same cell line, the relative viability ([2]; first compound 0.08 µM) was 0.336, the relative viability ([2]; first compound 0.8 µM) was 0.258 and the relative viability ([2]; first compound 2.53 µM) was 0.251. The relative viability ([2]; first compound 8 µM) was 0.289, the relative viability (QS11 + Decitabine; first compound 0.08 µM) was 0.484 and the relative viability (QS11 + Decitabine; first compound 0.253 µM) was 0.554. For the same cell line, the relative viability (QS11 + Decitabine; first compound 2.53 µM) was 0.487 and the relative viability (QS11 + Decitabine; first compound 8 µM) was 0.556.
Work on LC-2-ad yielded a relative viability ([1]; first compound 0.08 µM) of 0.98, a relative viability ([1]; first compound 0.8 µM) of 0.808 and a relative viability ([1]; first compound 2.53 µM) of 0.812. It also gave a relative viability ([1]; first compound 8 µM) of 0.843, a relative viability (AZ628 + Olaparib; first compound 0.08 µM) of 0.712 and a relative viability (AZ628 + Olaparib; first compound 0.253 µM) of 0.646. For the same cell line, the relative viability (AZ628 + Olaparib; first compound 0.8 µM) was 0.823, the relative viability (AZ628 + Olaparib; first compound 2.53 µM) was 0.736 and the relative viability (AZ628 + Olaparib; first compound 8 µM) was 0.681. It also gave a relative viability ([2]; first compound 0.08 µM) of 0.524, a relative viability ([2]; first compound 0.8 µM) of 0.459 and a relative viability ([2]; first compound 2.53 µM) of 0.447. It also gave a relative viability ([2]; first compound 8 µM) of 0.383, a relative viability (QS11 + Decitabine; first compound 0.08 µM) of 0.776 and a relative viability (QS11 + Decitabine; first compound 0.253 µM) of 0.775. The relative viability (QS11 + Decitabine; first compound 0.8 µM) was 0.691, the relative viability (QS11 + Decitabine; first compound 2.53 µM) was 0.722 and the relative viability (QS11 + Decitabine; first compound 8 µM) was 0.712.
With HCC-78 the relative viability ([1]; first compound 0.08 µM) was 0.502, the relative viability ([1]; first compound 0.8 µM) was 0.56 and the relative viability ([1]; first compound 2.53 µM) was 0.588. The relative viability ([1]; first compound 8 µM) was 0.424, the relative viability (AZ628 + Olaparib; first compound 0.08 µM) was 0.94 and the relative viability (AZ628 + Olaparib; first compound 0.253 µM) was 0.808. The relative viability (AZ628 + Olaparib; first compound 0.8 µM) was 0.807, the relative viability (AZ628 + Olaparib; first compound 2.53 µM) was 0.786 and the relative viability (AZ628 + Olaparib; first compound 8 µM) was 0.903. It also gave a relative viability ([2]; first compound 0.08 µM) of 0.36, a relative viability ([2]; first compound 0.8 µM) of 0.316 and a relative viability ([2]; first compound 2.53 µM) of 0.332. For the same cell line, the relative viability ([2]; first compound 8 µM) was 0.348, the relative viability (QS11 + Decitabine; first compound 0.08 µM) was 0.687 and the relative viability (QS11 + Decitabine; first compound 0.253 µM) was 0.772. It also gave a relative viability (QS11 + Decitabine; first compound 0.8 µM) of 0.662, a relative viability (QS11 + Decitabine; first compound 2.53 µM) of 0.797 and a relative viability (QS11 + Decitabine; first compound 8 µM) of 0.719.
SW 1573 was tested, and the relative viability ([1]; first compound 0.08 µM) was 0.935, the relative viability ([1]; first compound 0.8 µM) was 0.811 and the relative viability ([1]; first compound 2.53 µM) was 0.874. For the same cell line, the relative viability ([1]; first compound 8 µM) was 0.906, the relative viability (AZ628 + Olaparib; first compound 0.08 µM) was 0.462 and the relative viability (AZ628 + Olaparib; first compound 0.253 µM) was 0.423. The relative viability (AZ628 + Olaparib; first compound 0.8 µM) was 0.365, the relative viability (AZ628 + Olaparib; first compound 2.53 µM) was 0.374 and the relative viability (AZ628 + Olaparib; first compound 8 µM) was 0.346. For the same cell line, the relative viability ([2]; first compound 0.08 µM) was 1.13, the relative viability ([2]; first compound 0.8 µM) was 0.711 and the relative viability ([2]; first compound 2.53 µM) was 0.668. It also gave a relative viability ([2]; first compound 8 µM) of 0.851, a relative viability (QS11 + Decitabine; first compound 0.08 µM) of 0.548 and a relative viability (QS11 + Decitabine; first compound 0.253 µM) of 0.612. The relative viability (QS11 + Decitabine; first compound 0.8 µM) was 0.558, the relative viability (QS11 + Decitabine; first compound 2.53 µM) was 0.475 and the relative viability (QS11 + Decitabine; first compound 8 µM) was 0.388.
